Like-named read-outs stand apart in the source and are kept apart here.
How the values were obtained:
[1] = tested on: BT474 cells; test: In vitro cytotoxicity, ATPlite luminescence assay; format: cell-based; conditions: Homo sapiens, BT-474; BT474 (HER2+), 48 h treatment + 24 h fresh medium, µM in DXR
Procedure: (§1) For cytotoxicity experiments, four human cancer cell lines were used, that is, three HER2+ BT474 (ATCC HTB‐20), SKBR3 (ATCC HTB‐ 30) and SKOV3 (ATCC HTB‐77), and the HER2‐ MDA‐MB‐231 (ATCC HTB‐26). Cells were maintained in DMEM medium supplemented with 10% fetal bovine serum (FBS), 1% glutamine, 1% penicillin‐streptomycin, in humidified conditions at 37 °C with 5% CO2.
(§2) The cytotoxic effect of formulations was evaluated on HER2+ (BT474, SKBR3, and SKOV3) and HER2‐ (MDA‐MB‐231) cell lines by means of the ATPlite Luminescence ATP Detection Assay System. The cytotoxic effect of targeted DXR‐loaded liposomal formulations was compared to that of non‐targeted DXR‐loaded liposomes and free DXR (positive control). Cells treated only with the medium were used as control. Briefly, the cells were seeded in black 96‐well plates at a density of 5000 cells/well (SKBR3, SKOV3, and MDA‐MB‐231) and 7500 cells/well (BT474). After 24 h, cells were treated with increasing concentrations of the liposomal formulations (0.01–50 µM in DXR, n = 7) for 24 (SKBR3, SKOV3, and MDA‐MB‐231) or 48 (BT474) h. At the end of the exposure, treatments were replaced by fresh complete medium for 24 h. To quantify ATP production, cells were treated following the manufacturer's instructions, and luminescence was quantified by means of a Victor Nivo multi‐plate reader (PerkinElmer, Waltham, MA, USA). The percentage of cell viability was determined as (luminescencetreated cells/luminescencecontrol cells) × 100. IC50 values were calculated using GraphPad Prism 9.0 (San Diego, CA, USA) by a nonlinear regression model.

[2] = tested on: SKBR3 cells; test: In vitro cytotoxicity, ATPlite luminescence assay; format: cell-based; conditions: Homo sapiens, SK-BR-3; SKBR3 (HER2+), 24 h treatment + 24 h fresh medium, µM in DXR
Procedure: as §1, §2

[3] = tested on: SKOV3 cells; test: In vitro cytotoxicity, ATPlite luminescence assay; format: cell-based; conditions: Homo sapiens, SK-OV-3; SKOV3 (HER2+), 24 h treatment + 24 h fresh medium, µM in DXR
Procedure: as §1, §2

[4] = Pharmacokinetic study in rats; format: in vivo, Sprague Dawley rats; conditions: 2.5 mg kg^−1 in DXR i.v.; for half-life: female, Sprague Dawley, rat, plasma, iv, 2.5 mg/kg, bicompartmental model
Procedure: DXR was extracted by treating 50 µL of plasma with 10 µL of 1 M Triton X‐100 and 580 µL of 81 mM HCl in isopropanol to allow plasma proteins precipitation. After overnight incubation at 4 °C, samples were centrifuged for 3 min × 3000 rpm and the supernatants were analyzed using an FP‐6500 Jasco spectrofluorometer (λ ex = 470 nm; λ em = 584 nm). DXR concentration in each plasma sample was extrapolated through a calibration curve of standard solutions of either DXR or DXR‐loaded SL for the liposomal formulations. The pharmacokinetic analysis was performed using the PKSolver 2.0 software by applying a bicompartmental model.

[5] = Toxicological study in rats (blood count, plasma biochemistry, histology); format: in vivo, Sprague Dawley rats
Text: The study protocol was approved by the Ethics Committee of the University of Padova and the Italian Ministry of Health (Prot. No. 938/2016‐PR obtained on October 10, 2016), and animals were handled in compliance with national and international guidelines, that is, the Italian Legislative Decree 26/2014 and the “Guide for the Care and Use of Laboratory Animals” by the National Research Council of the National Academies. Female Sprague Dawley rats (140–190 g) were randomly divided into groups of 6 rats each. A dose of 2.5 mg kg^−1 in DXR of either free drug or DXR‐loaded liposomal formulations (SL, SIL, SSIL2) was administered via tail vein to the rats previously anesthetized with isoflurane gas (mixed with O2 in enclosed cages). At scheduled time points, blood samples (≈200 µL) were collected from the tail into heparin‐treated tubes and thereafter immediately centrifuged 15 min × 1500 × g to separate plasma. Rats were euthanized with isoflurane anesthesia 48 h after administration and the blood was collected with an intracardiac puncture to measure complete blood count and plasma biochemistry. These measurements were performed by means of standard laboratory tests.^[ [27] ^] After sacrifice, the main organs (liver, spleen, lungs, kidneys, heart, brain, ovaries) were collected, weighed, washed with saline solution, and frozen in liquid nitrogen. An appropriate amount of each organ was placed in formalin for histological analysis.^[ [28] ^]

- AUC0‐inf [4]: 60 ± 31 ng·h/mL
- half-life ([4]; read-out: t 1/2 alpha (converted)): 34.4 ± 21.6 min
- half-life ([4]; read-out: t 1/2 beta (converted)): 79.1 ± 48.7 min
SMILES: COc1cccc2c1C(=O)c1c(O)c3c(c(O)c1C2=O)C[C@@](O)(C(=O)CO)C[C@@H]3O[C@H]1C[C@H](N)[C@H](O)[C@H](C)O1 [DXR, Doxorubicin]
- IC50 [1]: 0.08 ± 0.003 µM
- IC50 [2]: 0.034 ± 0.026 µM
- IC50 [3]: 0.092 ± 0.004 µM
- Anemia (red blood cells, hemoglobin, hematocrit decreased versus controls) ([5]; 2.5 mg kg^−1 in DXR i.v., 48 h): anemic
- Erythrocytes (RBCs) ([5]; 2.5 mg kg^−1 in DXR i.v., 48 h): 4.61e+12 L⁻¹
- Hematocrit ([5]; 2.5 mg kg^−1 in DXR i.v., 48 h): 0.286 L/L
- Hemoglobin ([5]; 2.5 mg kg^−1 in DXR i.v., 48 h): 93 ± 10 g/L
- Liver histology ([5]; 2.5 mg kg^−1 in DXR i.v., 48 h): small and isolated granulomatous lesion
- MCH ([5]; 2.5 mg kg^−1 in DXR i.v., 48 h): 20.3 ± 0.4 pg
- MCHC ([5]; 2.5 mg kg^−1 in DXR i.v., 48 h): 329 ± 20 g/L
- MCV ([5]; 2.5 mg kg^−1 in DXR i.v., 48 h): 61.8 ± 2.9 fL
- Platelets (PLTs) ([5]; 2.5 mg kg^−1 in DXR i.v., 48 h): 811 ± 402 x109/L
- RDW ([5]; 2.5 mg kg^−1 in DXR i.v., 48 h): 11.8 ± 0.5%
- Spleen histology ([5]; 2.5 mg kg^−1 in DXR i.v., 48 h): slight increased hematopoiesis
- Leukocytes (WBCs) ([5]; 2.5 mg kg^−1 in DXR i.v., 48 h after administration): 2.05 ± 1.15 x109/L
- Glucose ([5]; plasma biochemistry, 2.5 mg kg^−1 in DXR i.v., 48 h): 10.7 ± 0.8 mmol/L
- ALP ([5]; plasma biochemistry, 48 h): 143 ± 36 U/L
- ALT ([5]; plasma biochemistry, 48 h): 20 ± 6 U/L
- AST ([5]; plasma biochemistry, 48 h): 78 ± 16 U/L
- Albumin ([5]; plasma biochemistry, 48 h): 42 ± 3 g/L
- Calcium ([5]; plasma biochemistry, 48 h): 2.67 ± 0.09 mmol/L
- Chloride ([5]; plasma biochemistry, 48 h): 102 ± 2 mmol/L
- Creatinine ([5]; plasma biochemistry, 48 h): 16 ± 2 µM
- Direct bilirubin ([5]; plasma biochemistry, 48 h): 0.3 ± 0.2 µM
- Inorganic Phosphorous ([5]; plasma biochemistry, 48 h): 2.45 ± 0.16 mmol/L
- Potassium ([5]; plasma biochemistry, 48 h): 3.9 ± 0.4 mmol/L
- Sodium ([5]; plasma biochemistry, 48 h): 142 ± 1 mmol/L
- Total bilirubin ([5]; plasma biochemistry, 48 h): 0.4 ± 0.2 µM
- Total cholesterol ([5]; plasma biochemistry, 48 h): 64 ± 9 mg/dL
- Triglycerides ([5]; plasma biochemistry, 48 h): 64 ± 37 mg/dL
- Urea ([5]; plasma biochemistry, 48 h): 4.7 ± 0.2 mmol/L

— PMC11469322, “Anti‐HER2 Super Stealth Immunoliposomes for Targeted‐Chemotherapy” (Advanced Healthcare Materials, 2023)
